Measured values reported in the supplement of paper PMC8671470.

Tests used:
Test in all cases: cell viability (% survival relative to DMSO control); higher = less cytotoxic
Conditions in all cases: 72 h
Mono-Mac-6 = tested on: Mono-Mac-6
Description: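 8x8 drug-combination matrices (0–5000 nM; rosiglitazone and lestaurtinib 0–1000 nM) were run in Mono-Mac-6 cells for 72 h with CellTiter-Glo read-out. Survival is normalised to DMSO and 10 µM bortezomib and clipped at 100%.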

BV-173 = tested on: BV-173
Description: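 8x8 drug-combination matrices (0–5000 nM; rosiglitazone and lestaurtinib 0–1000 nM) were run in BV-173 cells for 72 h with CellTiter-Glo read-out. Survival is normalised to DMSO and 10 µM bortezomib and clipped at 100%.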

MV4-11 = tested on: MV4-11
Description: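 8x8 drug-combination matrices (0–5000 nM; rosiglitazone and lestaurtinib 0–1000 nM) were run in MV4-11 cells for 72 h with CellTiter-Glo read-out. Survival is normalised to DMSO and 10 µM bortezomib and clipped at 100%.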

CN(C)CCNC(=O)c1cccn2c(=O)c3cc4ccccc4cc3nc12 [Bmh-21] + O=C(O)CC[N+](=O)[O-] [3-nitropropionic acid]
cell viability [%]
Conditions	drug1 concentration 5 nM	drug1 concentration 10 nM	drug1 concentration 50 nM	drug1 concentration 100 nM	drug1 concentration 500 nM	drug1 concentration 1000 nM	drug1 concentration 5000 nM
BV-173, drug2 concentration 5 nM	> 100	> 100	> 100	95.6	6.08	1.91	0.1
BV-173, drug2 concentration 10 nM	94.1	> 100	> 100	> 100	19.6	3.29	-1.01
BV-173, drug2 concentration 50 nM	> 100	79.4	83.4	> 100	0.68	35.3	-0.78
BV-173, drug2 concentration 100 nM	82.9	> 100	> 100	94.8	2.69	-0.53	0.59
BV-173, drug2 concentration 500 nM	> 100	86.6	88.3	> 100	38.2	68	-0.99
BV-173, drug2 concentration 1000 nM	92	> 100	> 100	66.9	10.4	-1.13	0.46
BV-173, drug2 concentration 5000 nM	> 100	> 100	> 100	99.5	0.21	-1.32	0
MV4-11, drug2 concentration 5 nM	92.2	> 100	96.9	80.6	72.2	88.4	29.9
MV4-11, drug2 concentration 10 nM	> 100	> 100	> 100	> 100	39.5	77.4	34.1
MV4-11, drug2 concentration 50 nM	91.9	88.3	90.3	> 100	73.8	78.7	57.4
MV4-11, drug2 concentration 100 nM	81.9	> 100	> 100	93.2	77.6	84.5	91.6
MV4-11, drug2 concentration 500 nM	> 100	99.8	96.2	95.9	> 100	96.8	11.1
MV4-11, drug2 concentration 1000 nM	90.9	89.5	> 100	98.2	> 100	57.3	68.4
MV4-11, drug2 concentration 5000 nM	> 100	77.9	66.9	> 100	62.8	59.4	43.1
Mono-Mac-6, drug2 concentration 5 nM	76.5	> 100	> 100	83.1	56.5	60.2	63.5
Mono-Mac-6, drug2 concentration 10 nM	> 100	> 100	> 100	> 100	70.1	83.3	45.7
Mono-Mac-6, drug2 concentration 50 nM	> 100	91.1	87	> 100	63.6	67.4	49.9
Mono-Mac-6, drug2 concentration 100 nM	98.2	> 100	> 100	79.8	73.9	74.2	> 100
Mono-Mac-6, drug2 concentration 500 nM	90.6	> 100	91.9	> 100	> 100	72.2	44.8
Mono-Mac-6, drug2 concentration 1000 nM	96.3	97	88.2	90.7	> 100	83.4	83.5
Mono-Mac-6, drug2 concentration 5000 nM	> 100	76.8	> 100	> 100	67.5	61	69.3

Oc1ncc(F)c(O)n1 [5-fluorouracil] + C[C@]12O[C@H](C[C@]1(O)CO)n1c3ccccc3c3c4c(c5c6ccccc6n2c5c31)CNC4=O [Lestaurtinib]
cell viability [%]
Conditions	drug1 concentration 5 nM	drug1 concentration 10 nM	drug1 concentration 50 nM	drug1 concentration 100 nM	drug1 concentration 500 nM	drug1 concentration 1000 nM	drug1 concentration 5000 nM
BV-173, drug2 concentration 1 nM	> 100	> 100	> 100	> 100	86.1	79.2	47.6
BV-173, drug2 concentration 5 nM	> 100	81.2	85.7	86.6	> 100	82.8	69.9
BV-173, drug2 concentration 10 nM	93	95.9	87.7	> 100	72.4	74.2	71.8
BV-173, drug2 concentration 50 nM	60.2	59.9	50	68.2	58.5	59.2	35
BV-173, drug2 concentration 100 nM	68	43.6	46.5	47.5	40.6	44.3	20.2
BV-173, drug2 concentration 500 nM	18.1	36.8	20.9	25.8	20.4	20.7	9.65
BV-173, drug2 concentration 1000 nM	19.6	37.9	24.6	30.9	42.5	27.9	8.5
MV4-11, drug2 concentration 1 nM	88.4	> 100	> 100	88.1	69.4	68.5	12.8
MV4-11, drug2 concentration 5 nM	70.5	43	50.6	46	55.2	41.9	21.9
MV4-11, drug2 concentration 10 nM	26.4	23.6	28.6	42.1	19	25.7	13.7
MV4-11, drug2 concentration 50 nM	2.49	4.72	2.14	3.46	4.09	5.74	1.61
MV4-11, drug2 concentration 100 nM	3.32	0.99	1.1	1.76	0.68	3.09	-0.36
MV4-11, drug2 concentration 500 nM	0.17	-0.1	1.37	1.89	0.91	0.05	0.08
MV4-11, drug2 concentration 1000 nM	-1.49	-0.48	0.53	3.29	2.21	1.49	0.17
Mono-Mac-6, drug2 concentration 1 nM	> 100	> 100	> 100	98	81.7	66.8	43.8
Mono-Mac-6, drug2 concentration 5 nM	> 100	62.4	76.5	65.3	69.7	54.7	48
Mono-Mac-6, drug2 concentration 10 nM	58.5	59.6	61.9	68	42.9	54.4	50.9
Mono-Mac-6, drug2 concentration 50 nM	20.5	20.9	19	21.8	19.7	19.4	21.1
Mono-Mac-6, drug2 concentration 100 nM	15.4	11.6	14.2	12.9	8.95	10.9	7.36
Mono-Mac-6, drug2 concentration 500 nM	1.8	1.6	3.44	3.7	1.89	2.85	1.13
Mono-Mac-6, drug2 concentration 1000 nM	-0.9	1.2	0.62	2.92	5.56	0.83	0

CN(C)C(=O)n1nnnc1Cc1ccc(-c2ccccc2)cc1 + CCOC(=O)N1c2ccc(C(F)(F)F)cc2[C@@H](N(Cc2cc(C(F)(F)F)cc(C(F)(F)F)c2)C(=O)OC)C[C@H]1CC [Torcetrapib]
cell viability [%]
Conditions	drug1 concentration 5 nM	drug1 concentration 10 nM	drug1 concentration 50 nM	drug1 concentration 100 nM	drug1 concentration 500 nM	drug1 concentration 1000 nM	drug1 concentration 5000 nM
BV-173, drug2 concentration 5 nM	> 100	> 100	> 100	83.6	86.7	61	-1.29
BV-173, drug2 concentration 10 nM	79.6	99.9	97.9	77.9	64.3	67	-0.12
BV-173, drug2 concentration 50 nM	70.5	94.4	69.5	70.6	61	53.7	1.13
BV-173, drug2 concentration 100 nM	62.8	69	80.1	87.3	> 100	45.6	-0.25
BV-173, drug2 concentration 500 nM	73.5	> 100	> 100	83.8	95.5	86	0.45
BV-173, drug2 concentration 1000 nM	80.8	68.8	94.8	94.5	> 100	71.3	1.28
BV-173, drug2 concentration 5000 nM	61.4	64.7	62	69.6	77.6	24.2	0
MV4-11, drug2 concentration 5 nM	> 100	95	> 100	89.1	76.8	> 100	0.81
MV4-11, drug2 concentration 10 nM	94.9	96	> 100	85	74.3	79.8	3.27
MV4-11, drug2 concentration 50 nM	> 100	> 100	> 100	87.6	88.5	97.3	4.29
MV4-11, drug2 concentration 100 nM	> 100	> 100	> 100	> 100	> 100	77.1	1.95
MV4-11, drug2 concentration 500 nM	> 100	> 100	> 100	98	> 100	> 100	1.23
MV4-11, drug2 concentration 1000 nM	98	99.8	85.5	93	99.7	> 100	2.41
MV4-11, drug2 concentration 5000 nM	98.2	> 100	> 100	98.2	> 100	94.2	2.53
Mono-Mac-6, drug2 concentration 5 nM	> 100	> 100	> 100	> 100	82.7	86.1	-0.88
Mono-Mac-6, drug2 concentration 10 nM	93	86.3	> 100	92	69	90.7	0.43
Mono-Mac-6, drug2 concentration 50 nM	> 100	89.7	93.7	95.9	> 100	58.1	1.57
Mono-Mac-6, drug2 concentration 100 nM	89	> 100	> 100	> 100	> 100	96.6	0.14
Mono-Mac-6, drug2 concentration 500 nM	91.9	> 100	> 100	97	> 100	> 100	0.52
Mono-Mac-6, drug2 concentration 1000 nM	99.7	86.5	98.8	> 100	> 100	> 100	2.08
Mono-Mac-6, drug2 concentration 5000 nM	90.6	88.3	> 100	93.4	> 100	74.2	0
